From patent US6927213B2, “Cationic cholesteryl derivatives containing cyclic polar groups” (University of Pittsburgh, priority 1996, dated 2005)
Entries after “also recorded” stand apart in the source; their conditions may differ. Where two headings read alike, the source gives them in different places.

Legend:
CHO cells [1] = test: Transfection of CHO cells with pCMV-Luc DNA:lipid complexes, luciferase activity; format: cell-based, Chinese Hamster; conditions: for luciferase activity (transfection activity): 1 μg pCMV-Luc DNA, liposomes DOPE:cationic lipid 1:1 mol:mol, absence of serum, 36 hours after transfection
CHO cells [2] = test: Toxicity of lipids: protein per well 36 hours after transfection, CHO cells
293 cells = test: Transfection of 293 cells with pCMV-Luc DNA:lipid complexes, luciferase activity; format: cell-based, human; conditions: DOPE:lipid 1:1 mol:mol, FIG. 7
Method: (§1) 2 μmol of Lipid dissolved in chloroform was transferred to a test tube. A solution of DOPE (2 umol) in chloroform was then added to this test tube. The chloroform was evaporated by passing a stream of nitrogen through the test tube to obtain a thin film of at the bottom of the test tube. Further drying was done in a desiccator under high vacuum for 30 minutes. 2 ml of distilled water was then added to the test tubes. The test tubes were stoppered and vortexed for one minute followed by sonication until the size of the particles was between 100 to 200 nm. The size of the particles was measured by Coulter particle size analyzer.
(§2) CHO, 293 and BL6 cells were obtained from the American Type Culture Collection (ATCC). Chinese Hamster Ovarian (“CHO”) cells were maintained in F-12 nutrient medium supplemented with 10% fetal bovine serum, antibiotics (1% penicillin-streptomycin) and 1% glutamine; human embryonic kidney 293 cells and murine melanoma BL6 cells were cultured in DMEM medium supplemented with 10% fetal bovine serum, antibiotics (1% penicillin-streptomycin) and 1% glutamine. […]
(§3) Luciferase activity was assayed by measuring the luminescence obtained after adding the substrate (Promega) to in aliquot of lysate. This luminescence was measured in a luminometer for 25 seconds.

BL6 cells [3] = test: Transfection of BL6 cells with pCMV-Luc DNA:lipid complexes, luciferase activity; format: cell-based, murine; conditions: DOPE:lipid 1:1 mol:mol, FIG. 8
Method: as §1, §2, §3

HeLa = test: Transfection of HeLa cells; format: cell-based; conditions: data not shown
Method: (§4) Lipid 5 was further compared with DC-Chol by transfecting BL6 cells with lipid 5- or DC-Chol-containing DNA:lipid complexes (FIGS. 7 and 8 respectively). […] Lipid 5 was also tested in several cell lines including HeLa, Siha and Caski which are somewhat difficult to transfect when compared with CHO or 293 cells.

Siha = test: Transfection of Siha cells; format: cell-based; conditions: data not shown
Method: as §4

Caski = test: Transfection of Caski cells; format: cell-based; conditions: data not shown
Method: as §4

BL6 cells [4] = test: Toxicity of lipids: protein per well 36 hours after transfection, BL6 cells; format: cell-based, murine; conditions: DOPE:lipid 1:1, FIG. 10
Method: Toxicity was assayed by measuring the amount of protein remaining in each well 36 hours after treatment with the indicated amount of liposome.
The toxicity of lipids was assayed by measuring the protein concentration in each well by Coomassie blue reagent (Píerce) 36 hours after transfection. Greater concentrations of protein per well indicated less toxicity of the tested lipids.
FIGS. 9 and 10 show the toxicity of lipid 5 compared to that of DC-Chol in CHO and BL6 cells respectively, where toxicity was assessed by measuring the amount of protein in each well after transfection of cells with DNA:lipid complexes formulated by mixing DNA and liposomes containing DOPE and DC-Chol or DOPE and lipids.

[5] = Stability of liposomes, retention of diameter over time; format: physicochemical; conditions: all lipid 5:DOPE ratios shown in FIG. 11
Method: as §1
The X axis of FIG. 11 refers to the total liposomal lipid mixed with 1 μg pCMV-Luc DNA:lipid complexes.

CHO cells [6] = test: Serum sensitivity of transfection of CHO cells; format: cell-based, Chinese Hamster; conditions: 1 μg DNA, 10% serum
Mice = test: In vivo transfection with pCMV-Luc DNA:lipid complexes; conditions: intratumoral or intravenous, 30 μg pCMV-Luc DNA with 30 nmols liposomal lipid (1:1 lipid 5:DOPE), 1-5 days
Method: Mice are injected intratumorally or intravenously with 50 μl of solution containing pCMV-Luc DNA (30 μg) complexed with 30 nmols of liposomal lipid (1:1 mol/mol lipid 5:DOPE). Animals are sacrificed 1-5 days later and extracts from tumor tissue (intratumor injection) or lung, liver and blood (intravenous injection) are assayed for luciferase activity and protein levels.

CHO cells [7] = system: CHO cells

## CC(C)CCC[C@@H](C)[C@H]1CC[C@H]2[C@@H]3CC=C4C[C@@H](OC(=O)NCCN(C)C)CC[C@]4(C)[C@H]3CC[C@]12C [DC-Chol, 3β [N-(N′,N′-dimethylaminoethane)carbamoyl] cholesterol, reference compound]
CHO cells [1]
  luciferase activity (transfection activity): lipid 5>DC-Chol>lipid 4
CHO cells [2]; cell line (CHO or BL6) not specified, data not shown
  appearance of transfected cells observed under microscope: some necrosis

## CC(C)CCC[C@@H](C)[C@H]1CC[C@H]2[C@@H]3CC=C4C[C@@H](OC(=O)NCCN5CCNCC5)CC[C@]4(C)[C@H]3CC[C@]12C [lipid 2, 4{N-2-ethylamino[(3′-β-cholesteryl)carbamoyl]}piperazine]
CHO cells [1]
  luciferase activity (transfection activity): low activity

## CC(C)CCC[C@@H](C)[C@H]1CC[C@H]2[C@@H]3CC=C4C[C@@H](OC(=O)NCCN5CCOCC5)CC[C@]4(C)[C@H]3CC[C@]12C [lipid 3, {N-2-ethylamino[(3′-β-cholesteryl)carbamoyl]}morpholine]
CHO cells [1]
  luciferase activity (transfection activity): low activity

## CC(C)CCC[C@@H](C)[C@H]1CC[C@H]2[C@@H]3CC=C4C[C@@H](OC(=O)NCCCN5CCOCC5)CC[C@]4(C)[C@H]3CC[C@]12C [lipid 4]
CHO cells [1]
  luciferase activity (transfection activity): lipid 5>DC-Chol>lipid 4; also recorded: reasonable activity

## CC(C)CCC[C@@H](C)[C@H]1CC[C@H]2[C@@H]3CC=C4C[C@@H](OC(=O)NN5CCN(C)CC5)CC[C@]4(C)[C@H]3CC[C@]12C [lipid 5, N-methyl{4-N-amino[(3′-β-cholesteryl)carbamoyl]}piperazine]
CHO cells [1]
  luciferase activity (transfection activity): lipid 5>DC-Chol>lipid 4; also recorded: high activity
CHO cells [1]; lipid 5:DOPE ratio of 2:8, FIG. 11
  transfection activity (luciferase): less activity
CHO cells [1]; lipid 5:DOPE ratio of 4:6, FIG. 11
  transfection activity (luciferase): very similar transfection activities
CHO cells [1]; lipid 5:DOPE ratio of 5:5, FIG. 11
  transfection activity (luciferase): very similar transfection activities
CHO cells [1]; lipid 5:DOPE ratio of 6:4, FIG. 11
  transfection activity (luciferase): highest activity among all complexes
CHO cells [1]; lipid 5:DOPE ratio of 8:2, FIG. 11
  transfection activity (luciferase): less activity
293 cells
  luciferase activity (transfection activity): almost equally as active as DC-Chol
BL6 cells [3]
  luciferase activity (transfection activity): almost equally as active as DC-Chol
HeLa
  ability to transfect cells: slightly better than DC-Chol
Siha
  ability to transfect cells: slightly better than DC-Chol
Caski
  ability to transfect cells: slightly better than DC-Chol
BL6 cells [4]
  toxicity: amount of protein in each well after transfection: more protein than cells transfected with DC-Chol-containing complex
[5]
  liposome stability (retention of diameter over time): stable liposomes
CHO cells [6]; 5 nmol lipid 5 (1:1 with DOPE)
  activity retained relative to the 0% serum complexes: approximately 40%
CHO cells [6]; 10 nmol lipid 5 (1:1 with DOPE)
  activity retained relative to the 0% serum complexes: approximately 40%
CHO cells [6]; 20 nmol lipid 5 (1:1 with DOPE)
  activity retained relative to the 0% serum complexes: 10%
Mice
  in vivo transfection activity (luciferase in tissue extracts): exhibit in vivo transfection activity
CHO cells [7]
  appearance of transfected cells observed under microscope: healthy
CHO cells [2]
  toxicity relative to DC-Chol: reduced toxicity
CHO cells [2]; CHO cells, DOPE:lipid 1:1, 36 hours, FIG. 9
  toxicity: amount of protein in each well after transfection: more protein than cells transfected with DC-Chol-containing complex

## CC(C)CCC[C@@H](C)[C@H]1CC[C@H]2[C@@H]3CC=C4C[C@@H](OC(=O)NCCN5CCCC5)CC[C@]4(C)[C@H]3CC[C@]12C [lipid 6, {N-2-ethylamino[(3′-β-cholesteryl)carbamoyl]}pyrrolidine]
CHO cells [1]
  luciferase activity (transfection activity): less active than DC-Chol
CHO cells [7]
  toxicity relative to DC-Chol: less toxic than DC-Chol

## CC(C)CCC[C@@H](C)[C@H]1CC[C@H]2[C@@H]3CC=C4C[C@@H](OC(=O)NCCN5CCCCC5)CC[C@]4(C)[C@H]3CC[C@]12C [lipid 7, {N-2-ethylamino[(3′-β-cholesteryl)carbamoyl]}piperidine]
CHO cells [1]
  luciferase activity (transfection activity): less active than DC-Chol
CHO cells [7]
  toxicity relative to DC-Chol: less toxic than DC-Chol

## (imidazole) propyl carbamoyl cholesteryl [lipid IM]
CHO cells [1]
  luciferase activity (transfection activity): slightly less active than DC-Chol

## pyridyl (ethyl) carbamoyl cholesteryl [lipid PY]
CHO cells [1]
  luciferase activity (transfection activity): much less active
CHO cells [2]
  toxicity relative to DC-Chol: comparable toxicity to DC-Chol
